Test results published in PubChem BioAssay AID652276 (Vanderbilt Specialized Chemistry Center, 2013).
The source made the active and inactive calls. The rule behind the calls is not given here.

Biological target: Activin receptor type-1 (Homo sapiens) (UniProt Q04771)
Assay: ALK2 kinase inhibitors, SAR follow-up, biochemical, secondary in vitro (AID 652276)
Conditions: in vitro ALK2 kinase assay; for remaining activity (low = inhibition): at 100 µM (top of the series)

Activin receptor type-1 (Homo sapiens), sequence (Q04771 whole entry, looked up): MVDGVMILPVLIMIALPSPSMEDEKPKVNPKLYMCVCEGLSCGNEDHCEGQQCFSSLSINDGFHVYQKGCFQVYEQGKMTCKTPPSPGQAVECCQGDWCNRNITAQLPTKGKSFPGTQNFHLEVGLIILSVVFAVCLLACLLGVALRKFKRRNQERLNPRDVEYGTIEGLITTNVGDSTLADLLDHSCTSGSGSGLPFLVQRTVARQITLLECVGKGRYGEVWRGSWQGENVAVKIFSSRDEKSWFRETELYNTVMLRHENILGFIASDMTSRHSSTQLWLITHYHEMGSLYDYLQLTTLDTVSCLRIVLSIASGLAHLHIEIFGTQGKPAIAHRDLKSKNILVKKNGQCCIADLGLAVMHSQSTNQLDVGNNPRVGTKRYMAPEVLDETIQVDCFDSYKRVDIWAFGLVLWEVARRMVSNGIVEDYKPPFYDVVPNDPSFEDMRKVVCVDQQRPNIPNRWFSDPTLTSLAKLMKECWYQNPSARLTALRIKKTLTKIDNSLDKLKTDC

Row | SMILES | remaining activity (low = inhibition) | IC50 [nM]
1 | COc1ccc(-c2cnc3c(-c4ccnc5ncccc45)cnn3c2)cc1 | – | 121
2 | COc1ccc(-c2cnc3c(-c4cccc5cccnc45)cnn3c2)cc1 | inactive | –
3 | COc1ccc(-c2cnc3c(-c4ccnc5ccccc45)cnn3c2)cc1 | – | 33
4 | CN1CCN(c2ccc(-c3cnc4c(-c5ccnc6ccccc56)cnn4c3)cc2)CC1 | -0.03 | –

More lines, now with the values ahead:

Row | remaining activity (low = inhibition) | IC50 [nM] | SMILES
5 | 0.93 | – | c1ccc2c(-c3cnn4cc(-c5ccc(N6CCOCC6)cc5)cnc34)ccnc2c1
6 | – | 110 | COc1ccc(-c2cnc3c(-c4cn[nH]c4)cnn3c2)cc1
7 | – | 43 | c1cc(N2CCNCC2)ccc1-c1cnc2c(-c3cn[nH]c3)cnn2c1
8 | – | 53 | c1cc(N2CCOCC2)ccc1-c1cnc2c(-c3cn[nH]c3)cnn2c1
